From US9669034B2, “4-aryl-N-phenyl-1,3,5-triazin-2-amines containing a sulfoximine group” (BAYER INTELLECTUAL PROPERTY GMBH, priority 2011, dated 2017)
Where two headings read alike, the source gives them in different places.

How the values were obtained:
CDK9/CycT1 = CDK9/CycT1 (Homo sapiens (Human), UniProt P50750); assay: CDK9/CycT1 kinase assay (TR-FRET); assay type: biochemical; settings: Method 1
From the text: 1. CDK9/CycT1 Kinase Assay:
CDK9/CycT1—inhibitory activity of compounds of the present invention was quantified employing the CDK9/CycT1 TR-FRET assay as described in the following paragraphs:
Recombinant full-length His-tagged human CDK9 and CycT1, expressed in insect cells and purified by Ni-NTA affinity chromatography, were purchased from Invitrogen (Cat. No PV4131). As substrate for the kinase reaction biotinylated peptide biotin-Ttds-[…]

CDK2/CycE = CDK2/CycE (Homo sapiens (Human), UniProt P24941); assay: CDK2/CycE kinase assay (TR-FRET); assay type: biochemical; settings: Method 2
From the text: 2. CDK2/CycE Kinase Assay:
CDK2/CycE—inhibitory activity of compounds of the present invention was quantified employing the CDK2/CycE TR-FRET assay as described in the following paragraphs:
Recombinant fusion proteins of GST and human CDK2 and of GST and human CycE, expressed in insect cells (Sf9) and purified by Glutathion-Sepharose affinity chromatography, were purchased from ProQinase GmbH (Freiburg, Germany). As substrate for the kinase reaction biotinylated peptide biotin-Ttds-[…]

[1] = test system: HeLa human cervical tumour cells; assay: Proliferation assay (crystal violet), HeLa; assay type: cell-based; settings: Method 3, read-out: Inhibition of HeLa cell proliferation, IC50
Description: (§1) Cultivated tumour cells (NCI-H460, human non-small cell lung carcinoma cells, ATCC HTB-177; DU145, hormone-independent human prostate carcinoma cells, ATCC HTB-81; HeLa-MaTu, human cervical carcinoma cells, EPO-GmbH, Berlin; HeLa-MaTu-ADR, multidrug-resistant human cervical carcinoma cells, EPO-GmbH, Berlin; HeLa human cervical tumour cells, ATCC CCL-2; Caco-2 human colorectal carcinoma, ATCC HTB-37; B16F10 mouse melanoma cells, ATCC CRL-6475) were plated at a density of 5000 cells/well (DU145, HeLa-MaTu-ADR), 3000 cells/well (NCI-H460, HeLa-MaTu, HeLa), 1500 cells/well (Caco-2), or 1000 cells/well (B16 F10) in a 96-well multititer plate in 200 μL of their respective growth medium supplemented 10% fetal calf serum. After 24 hours, the cells of one plate (zero-point plate) were stained with crystal violet (see below), while the medium of the other plates was replaced by fresh culture medium (200 μL), to which the test substances were added in various concentrations (0 M, as well as in the range of […]; the final concentration of the solvent dimethylsulfoxide was 0.5%). The cells were incubated for 4 days in the presence of test substances. Cell proliferation was determined by staining the cells with crystal violet: the cells were fixed by adding 20 μL/measuring point of an 11% glutaric aldehyde solution for 15 minutes at room temperature. After three washing cycles of the fixed cells with water, the plates were dried at room temperature. The cells were stained by adding 100 μL/measuring point of a 0.1% crystal violet solution (pH 3.0). After three washing cycles of the stained cells with water, the plates were dried at room temperature. The dye was dissolved by adding 100 μL/measuring point of a 10% acetic acid solution. The absorbance was determined by photometry at a wavelength of 595 nm. The change of cell number, in percent, was calculated by normalization of the measured values to the absorbance values of the zero-point plate (=0%) and the absorbance of the untreated (0 M) cells (=100%). The IC50 values were determined by means of a 4 parameter fit.

[2] = test system: HeLa-MaTu-ADR, multidrug-resistant human cervical carcinoma cells; assay: Proliferation assay (crystal violet), HeLa-MaTu-ADR; assay type: cell-based; settings: Method 3, read-out: Inhibition of HeLa/MaTu/ADR cell proliferation, IC50
Description: as §1

[3] = test system: NCI-H460, human non-small cell lung carcinoma cells; assay: Proliferation assay (crystal violet), NCI-H460; assay type: cell-based; settings: Method 3, read-out: Inhibition of NCI-H460 cell proliferation, IC50
Description: as §1

[4] = test system: DU145, hormone-independent human prostate carcinoma cells; assay: Proliferation assay (crystal violet), DU145; assay type: cell-based; settings: Method 3, read-out: Inhibition of DU145 cell proliferation, IC50
Description: as §1

[5] = test system: Caco-2 human colorectal carcinoma; assay: Proliferation assay (crystal violet), Caco-2; assay type: cell-based; settings: Method 3, read-out: Inhibition of Caco-2 cell proliferation, IC50
Description: as §1

[6] = test system: B16F10 mouse melanoma cells; assay: Proliferation assay (crystal violet), B16F10; assay type: cell-based; settings: Method 3, read-out: Inhibition of B16F10 cell proliferation, IC50
Description: as §1

[7] = Homo sapiens, NCI-H460, NCI-H460 cells
[8] = Homo sapiens, DU-145, DU145 cells
[9] = Homo sapiens, Caco-2, Caco-2 cells
[10] = Mus musculus, B16-F10, B16F10 cells

Sequence of CDK9/CycT1 (P50750 whole entry): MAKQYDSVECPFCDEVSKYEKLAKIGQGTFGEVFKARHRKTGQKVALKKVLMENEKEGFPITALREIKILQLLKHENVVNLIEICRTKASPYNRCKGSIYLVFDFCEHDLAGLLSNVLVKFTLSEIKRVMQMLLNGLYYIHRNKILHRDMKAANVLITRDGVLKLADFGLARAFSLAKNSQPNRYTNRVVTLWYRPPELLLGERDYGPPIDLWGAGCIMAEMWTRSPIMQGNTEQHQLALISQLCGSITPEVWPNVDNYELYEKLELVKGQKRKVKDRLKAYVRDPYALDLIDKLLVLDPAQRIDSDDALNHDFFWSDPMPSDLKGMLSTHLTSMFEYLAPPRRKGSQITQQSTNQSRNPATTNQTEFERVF
Sequence of CDK9/CycT1 (O60563 whole entry partner): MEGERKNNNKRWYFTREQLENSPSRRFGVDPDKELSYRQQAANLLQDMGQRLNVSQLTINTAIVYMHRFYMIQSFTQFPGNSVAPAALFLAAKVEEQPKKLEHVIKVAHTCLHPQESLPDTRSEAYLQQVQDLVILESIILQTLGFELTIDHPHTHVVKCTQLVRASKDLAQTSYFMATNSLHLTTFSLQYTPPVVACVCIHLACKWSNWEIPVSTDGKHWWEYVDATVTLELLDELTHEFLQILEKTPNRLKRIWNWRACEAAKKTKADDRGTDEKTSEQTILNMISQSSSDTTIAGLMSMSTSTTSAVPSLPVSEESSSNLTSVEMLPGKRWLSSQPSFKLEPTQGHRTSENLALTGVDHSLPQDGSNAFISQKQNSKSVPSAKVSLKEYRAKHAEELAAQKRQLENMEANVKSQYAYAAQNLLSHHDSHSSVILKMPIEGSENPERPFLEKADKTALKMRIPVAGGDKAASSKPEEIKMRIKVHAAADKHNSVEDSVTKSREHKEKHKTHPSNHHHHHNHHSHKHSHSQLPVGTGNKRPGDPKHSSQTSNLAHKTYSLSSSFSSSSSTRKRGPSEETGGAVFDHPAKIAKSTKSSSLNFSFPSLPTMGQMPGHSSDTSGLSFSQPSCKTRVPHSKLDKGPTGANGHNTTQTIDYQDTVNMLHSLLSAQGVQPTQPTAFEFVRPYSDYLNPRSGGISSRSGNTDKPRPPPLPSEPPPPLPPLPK

In the case of CS(=N)(=O)Cc1cccc(Nc2ncnc(-c3ccc(F)cc3OCc3ccc(F)cc3)n2)c1 (single isomer, unassigned) [Example 56.a, 4-{4-Fluoro-2-[(4-fluorobenzyl)oxy]phenyl}-N-{3-[(S-methylsulfonimidoyl)methyl]phenyl}-1,3,5-triazin-2-amine], the IC50 (CDK9/CycT1) is reported as 4 nM, the IC50 (CDK2/CycE) is reported as 560 nM and the IC50 ([1]; Homo sapiens, HeLa) is reported as 350 nM. For the same compound, the IC50 ([2]; Homo sapiens, HeLa) was 270 nM, the IC50 [3, 7] was 340 nM and the IC50 [4, 8] was 340 nM. The IC50 [5, 9] was 430 nM and the IC50 [6, 10] was 340 nM.

Work on COc1cc(F)ccc1-c1ncnc(Nc2cc(F)cc(CS(C)(=O)=NC#N)c2)n1 (single isomer, unassigned) [Example 72, [(3-Fluoro-5-{[4-(4-fluoro-2-methoxyphenyl)-1,3,5-triazin-2-yl]amino}benzyl)(methyl)oxido-λ^6-sulfanylidene]cyanamide] yielded an IC50 (CDK9/CycT1) of 5 nM, an IC50 (CDK2/CycE) of 240 nM and an IC50 [1] of 71 nM. It also gave an IC50 [2] of 120 nM, an IC50 ([3]; NCI-H460 cells) of 160 nM and an IC50 ([4]; DU145 cells) of 110 nM. It also gave an IC50 ([5]; Caco-2 cells) of 190 nM and an IC50 ([6]; B16F10 cells) of 160 nM.

With CS(=N)(=O)Cc1cccc(Nc2ncnc(-c3ccc(F)cc3OCc3cc(F)cc(Cl)c3)n2)c1 (racemic) [Example 94, (rac)-4-{2-[(3-Chloro-5-fluorobenzyl)oxy]-4-fluorophenyl}-N-{3-[(S-methylsulfonimidoyl)methyl]phenyl}-1,3,5-triazin-2-amine] the IC50 (CDK9/CycT1) was 3 nM, the IC50 (CDK2/CycE) was 230 nM and the IC50 ([1]; Homo sapiens, HeLa) was 110 nM. It also gave an IC50 ([2]; Homo sapiens, HeLa) of 190 nM, an IC50 [3, 7] of 200 nM and an IC50 [4, 8] of 140 nM. The IC50 [5, 9] was 220 nM and the IC50 [6, 10] was 180 nM.

For C=CCOc1cc(F)ccc1-c1ncnc(Nc2cccc(CS(C)(=N)=O)c2)n1 (racemic) [Example 85, (rac)-4-[4-Fluoro-2-(prop-2-en-1-yloxy)phenyl]-N-{3-[(S-methylsulfonimidoyl)methyl]phenyl}-1,3,5-triazin-2-amine], the IC50 (CDK9/CycT1) was 9 nM, the IC50 (CDK2/CycE) was 380 nM and the IC50 ([1]; Homo sapiens, HeLa) was 330 nM. The IC50 ([2]; Homo sapiens, HeLa) was 560 nM, the IC50 [3, 7] was 230 nM and the IC50 [4, 8] was 190 nM. The IC50 [5, 9] was 51 nM and the IC50 [6, 10] was 280 nM.

In the case of CS(=N)(=O)Cc1cccc(Nc2ncnc(-c3ccc(F)cc3OCc3ccnc(F)c3)n2)c1 (racemic) [Example 82, (rac)-4-{4-Fluoro-2-[(2-fluoropyridin-4-yl)methoxy]phenyl}-N-{3-[(S-methylsulfonimidoyl)methyl]phenyl}-1,3,5-triazin-2-amine], the IC50 (CDK9/CycT1) is reported as 7 nM, the IC50 (CDK2/CycE) is reported as 360 nM and the IC50 ([1]; Homo sapiens, HeLa) is reported as 180 nM. It also gave an IC50 ([2]; Homo sapiens, HeLa) of 190 nM, an IC50 [3, 7] of 180 nM and an IC50 [4, 8] of 130 nM. It also gave an IC50 [5, 9] of 180 nM and an IC50 [6, 10] of 150 nM.

In the case of COc1cc(F)ccc1-c1ncnc(Nc2cccc(CS(C)(=O)=NC(C)=O)c2)n1 (racemic) [Example 24, (rac)-N-[(3-{[4-(4-fluoro-2-methoxyphenyl)-1,3,5-triazin-2-yl]amino}benzyl)(methyl)oxido-λ^6-sulfanylidene]acetamide], the IC50 (CDK9/CycT1) is reported as 11 nM, the IC50 (CDK2/CycE) is reported as 1800 nM and the IC50 ([1]; Homo sapiens, HeLa) is reported as 490 nM. The IC50 ([2]; Homo sapiens, HeLa) was 520 nM, the IC50 [3, 7] was 760 nM and the IC50 [4, 8] was 680 nM. The IC50 [5, 9] was 710 nM and the IC50 [6, 10] was 940 nM.

Work on CS(=N)(=O)Cc1cccc(Nc2ncnc(-c3ccc(F)cc3OCC3CCCCC3)n2)c1 (racemic) [Example 55, (rac)-4-[2-(Cyclohexylmethoxy)-4-fluorophenyl]-N-{3-[(S-methylsulfonimidoyl)methyl]phenyl}-1,3,5-triazin-2-amine] yielded an IC50 (CDK9/CycT1) of 10 nM, an IC50 (CDK2/CycE) of 2200 nM and an IC50 ([1]; Homo sapiens, HeLa) of 1000 nM. It also gave an IC50 ([2]; Homo sapiens, HeLa) of 850 nM, an IC50 [3, 7] of 980 nM and an IC50 [4, 8] of 990 nM. It also gave an IC50 [5, 9] of 890 nM.

CCOC(=O)N=S(C)(=O)Cc1cccc(Nc2ncnc(-c3cc(F)c(F)cc3OC)n2)c1 (racemic) [Example 9, (rac)-Ethyl [(3-{[4-(4,5-difluoro-2-methoxyphenyl)-1,3,5-triazin-2-yl]amino}benzyl)(methyl)oxido-λ^6-sulfanylidene]carbamate] showed an IC50 (CDK9/CycT1) of 8 nM, an IC50 (CDK2/CycE) of 690 nM and an IC50 ([2]; Homo sapiens, HeLa) of 960 nM. The IC50 [3, 7] was 980 nM, the IC50 [4, 8] was 900 nM and the IC50 [5, 9] was 800 nM. It also gave an IC50 [6, 10] of 1000 nM.

CS(=N)(=O)Cc1cccc(Nc2ncnc(-c3ccc(F)cc3OCc3cncs3)n2)c1 (racemic) [Example 81, (rac)-4-[4-Fluoro-2-(1,3-thiazol-5-ylmethoxy)phenyl]-N-{3-[(S-methylsulfonimidoyl)methyl]phenyl}-1,3,5-triazin-2-amine] showed an IC50 (CDK9/CycT1) of 23 nM, an IC50 (CDK2/CycE) of 1500 nM and an IC50 ([1]; Homo sapiens, HeLa) of 860 nM.

CCS(=N)(=O)Cc1cccc(Nc2ncnc(-c3ccc(F)cc3OC)n2)c1 (racemic) [Example 108, (rac)-N-{3-[(S-ethylsulfonimidoyl)methyl]phenyl}-4-(4-fluoro-2-methoxyphenyl)-1,3,5-triazin-2-amine] gave an IC50 (CDK9/CycT1) of 8 nM, an IC50 (CDK2/CycE) of 1000 nM and an IC50 ([1]; Homo sapiens, HeLa) of 1000 nM.

Work on COc1cc(F)ccc1-c1ncnc(Nc2ccc(Cl)c(CS(C)(=N)=O)c2)n1 (single isomer, unassigned) [Example 59.b, N-{4-Chloro-3-[(S-methylsulfonimidoyl)methyl]phenyl}-4-(4-fluoro-2-methoxyphenyl)-1,3,5-triazin-2-amine] yielded an IC50 (CDK9/CycT1) of 33 nM, an IC50 (CDK2/CycE) of 1800 nM and an IC50 [1] of 1100 nM.

COc1cc(F)ccc1-c1ncnc(Nc2cc(F)cc(CS(C)(=N)=O)c2)n1 (racemic) [Example 52, (rac)-4-(4-Fluoro-2-methoxyphenyl)-N-{3-fluoro-5-[(S-methylsulfonimidoyl)methyl]phenyl}-1,3,5-triazin-2-amine] was tested, and the IC50 (CDK2/CycE) was 1000 nM, the IC50 ([1]; Homo sapiens, HeLa) was 410 nM and the IC50 ([2]; Homo sapiens, HeLa) was 140 nM. It also gave an IC50 [3, 7] of 650 nM, an IC50 [4, 8] of 340 nM and an IC50 [5, 9] of 690 nM. For the same compound, the IC50 [6, 10] was 550 nM.

In the case of CCOC(=O)N=S(C)(=O)Cc1cc(F)cc(Nc2ncnc(-c3ccc(F)cc3OC)n2)c1 (racemic) [Example 51, (rac)-Ethyl [(3-fluoro-5-{[4-(4-fluoro-2-methoxyphenyl)-1,3,5-triazin-2-yl]amino}benzyl)(methyl)oxido-λ^6-sulfanylidene]carbamate], the IC50 (CDK2/CycE) is reported as 430 nM, the IC50 ([1]; Homo sapiens, HeLa) is reported as 300 nM and the IC50 ([2]; Homo sapiens, HeLa) is reported as 240 nM. It also gave an IC50 [3, 7] of 230 nM, an IC50 [4, 8] of 240 nM and an IC50 [5, 9] of 290 nM. The IC50 [6, 10] was 340 nM.

With CS(=N)(=O)Cc1cccc(Nc2ncnc(-c3ccc(F)cc3OCc3cc(F)c(F)cc3F)n2)c1 (racemic) [Example 103, (rac)-4-{4-Fluoro-2-[(2,4,5-trifluorobenzyl)oxy]phenyl}-N-{3-[(S-methylsulfonimidoyl)methyl]phenyl}-1,3,5-triazin-2-amine] the IC50 (CDK9/CycT1) was 7 nM, the IC50 (CDK2/CycE) was 1200 nM and the IC50 ([1]; Homo sapiens, HeLa) was 1100 nM.
